The text below walks through data of ChEMBL document CHEMBL1156981, “NGF-potentiating vibsane-type diterpenoids from Viburnum sieboldii” (Bioorg Med Chem Lett, 2010).

Type in all cases: functional, cell-based
The subject of test [1] is PC-12. The experiment in a line: Induction of neurite outgrowth in rat PC12 cells assessed as morphological changes after 48 hrs by phase-contrast microscopy.
For test [2], the system named is PC-12. The test can be described thus: Potentiation of NGF-induced neurite outgrowth in rat PC12 cells assessed as morphological changes at 0.1 to 40 uM after 48 hrs by phase-contrast microscopy.
Test [3] deals with PC-12. The test can be described thus: Potentiation of NGF-induced neurite outgrowth in rat PC12 cells assessed increase in neurite length extending from cell bodies at 0.1 to 40 uM after 48 hrs by phase-contrast microscopy.
The subject of test [4] is PC-12. The experiment in a line: Potentiation of NGF-induced neurite outgrowth in rat PC12 cells assessed increase in neurite length extending from cell bodies after 48 hrs by phase-contrast microscopy.
In test [5] the test system is PC-12. The experiment in a line: Potentiation of NGF-induced neurite outgrowth in rat PC12 cells assessed as morphological changes after 48 hrs by phase-contrast microscopy.

The source made the active and inactive calls. No cut-off for these calls is given here.

As to `COC(C)(C)/C=C/C[C@@]1(C)CC=C(CO)C(=O)[C@@H](CC(C)=O)[C@@H]1/C=C/OC(=O)C=C(C)C`, the result with PC-12 [1], with PC-12 [2] and with PC-12 [3] was inactive.

On to `CC(=O)C[C@@H]1C[C@@]2(C)CC=C3CO[C@@H](CC(C)=O)[C@]3(O1)[C@@H]2/C=C/OC(=O)C=C(C)C`, for which the result in the test with PC-12 [1] was inactive.

Turning to `COC(C)(C)/C=C/C[C@@]1(C)CC=C2CO[C@H]3C[C@](C)(OC)O[C@@]23[C@@H]1/C=C/OC(=O)C=C(C)C`, the outcome in the test with PC-12 [1] was inactive. In addition, the Activity result in the test on PC-12 [4] and in the test on PC-12 [5] was “Dose-dependent effect” throughout.

As to `CO[C@]1(C)C[C@@H]2OCC3=CC[C@](C)(C/C=C/C(C)C)[C@@H](/C=C/OC(=O)C=C(C)C)[C@]32O1`, the result with PC-12 [1] was inactive. Besides, the Activity entry in the test on PC-12 [4] and with PC-12 [5] was “Dose-dependent effect” each time.

Regarding `CO[C@@]1(C)C[C@@H]2OCC3=CC[C@](C)(C/C=C/C(C)C)[C@@H](/C=C/OC(=O)C=C(C)C)[C@]32O1`, the outcome in the test with PC-12 [1] was inactive. Besides, the Activity result in the test with PC-12 [4] and in the test with PC-12 [5] was “Dose-dependent effect” each time.

Consider `COC(C)(C)/C=C/C[C@@]1(C)CC=C2CO[C@H]3C[C@@](C)(OC)O[C@@]23[C@@H]1/C=C\OC(=O)C=C(C)C`, for which the result with PC-12 [1] was inactive. The Activity result in the test on PC-12 [4] and in the test with PC-12 [5] was “Dose-dependent effect” each time.

Regarding `COC(C)(C)/C=C/C[C@@]1(C)CC=C2CO[C@H]3C[C@@](C)(OC)O[C@@]23[C@@H]1/C=C/OC(=O)C=C(C)C`, the result with PC-12 [1] was inactive.

For `COC(C)(C)/C=C/C[C@@]1(C)CC=C(CO)C(=O)[C@H](CC(C)=O)[C@@H]1/C=C/OC(=O)C=C(C)C`, the result in the test on PC-12 [1], in the test with PC-12 [4], in the test on PC-12 [2] and in the test with PC-12 [3] was inactive.
